{
  "source": "ChEMBL document CHEMBL2074435",
  "about": "“Quantitative analysis of breast cancer resistance protein and cellular resistance to flavopiridol in acute leukemia patients” (Clin Cancer Res, 2003)",
  "biological_target": "T1, Broad substrate specificity ATP-binding cassette transporter ABCG2 (Homo sapiens, UniProt Q9UNQ0)",
  "T1 sequence (Q9UNQ0 whole entry)": "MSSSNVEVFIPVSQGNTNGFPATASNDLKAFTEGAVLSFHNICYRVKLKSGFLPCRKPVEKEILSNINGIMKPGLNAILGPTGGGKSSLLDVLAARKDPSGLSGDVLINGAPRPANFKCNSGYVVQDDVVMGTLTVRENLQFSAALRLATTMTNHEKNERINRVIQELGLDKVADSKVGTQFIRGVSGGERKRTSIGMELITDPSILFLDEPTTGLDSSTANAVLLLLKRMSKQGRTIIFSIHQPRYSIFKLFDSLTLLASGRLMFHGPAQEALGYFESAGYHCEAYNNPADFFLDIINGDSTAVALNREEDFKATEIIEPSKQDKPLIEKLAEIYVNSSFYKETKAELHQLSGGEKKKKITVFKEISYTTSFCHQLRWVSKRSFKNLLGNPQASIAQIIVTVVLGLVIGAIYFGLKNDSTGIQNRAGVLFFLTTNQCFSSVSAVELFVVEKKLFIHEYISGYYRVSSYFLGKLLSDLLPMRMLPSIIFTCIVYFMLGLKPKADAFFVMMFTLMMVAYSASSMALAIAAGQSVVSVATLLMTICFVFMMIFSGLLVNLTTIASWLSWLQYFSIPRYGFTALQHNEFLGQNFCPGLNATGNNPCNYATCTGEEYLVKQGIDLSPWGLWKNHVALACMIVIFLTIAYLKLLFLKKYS",
  "test": "TP_TRANSPORTER: correlation hBCRPmRNA with flavopiridol induced apoptosis resistance",
  "assay_type": "functional, cell-based",
  "data": [
    {"smiles": "CN1CC[C@H](c2c(O)cc(O)c3c(=O)cc(-c4ccccc4Cl)oc23)[C@H](O)C1", "note": "[ALVOCIDIB]", "values": [
      {"measurement": "Activity", "result": "substrate []"}
    ]}
  ]
}
